Results from US11766468B2, “Method of treating prostate cancer with GnRH antagonist” (priority 2012, dated 2023).
Square brackets hold non-standard residues; d marks the D form. Peptide text beside a SMILES is read from it. * marks the point of attachment. dPhe(4-NHCONH2) = NC(=O)Nc1ccc(C[C@@H](N)C(=O)O)cc1; Dihydroorotyl(S) = O=C1C[C@@H](C(=O)*)NC(=O)N1; dPhe(4-Cl) = N[C@H](Cc1ccc(Cl)cc1)C(=O)O; Phe(4-NH2) = Nc1ccc(C[C@H](N)C(=O)O)cc1; d2Nal = N[C@H](Cc1ccc2ccccc2c1)C(=O)O; Lys(iPr) = CC(C)NCCCC[C@H](N)C(=O)O; d3Pal = N[C@H](Cc1cccnc1)C(=O)O

Experiment: CS21 safety: treatment-emergent adverse events (MedDRA SOC/PT), crude incidence, also by subgroup
Assay type: in vivo
Experimental: The safety variables for this study were assessed on the following: the frequency and severity of adverse events (AEs); the presence of clinically significant changes in laboratory parameters (clinical chemistry, hematology and urinalysis); changes in electrocardiograms (ECGs) and vital signs; changes detected by physical examination; and body weight.
An AE was therefore any unfavorable or unintended sign (including an abnormal laboratory finding), symptom or disease temporally associated with the use of the product, whether or not related to the IMP.
An adverse drug reaction (ADR) was defined as an AE evaluated by the investigator as being probably or possibly related to treatment with the IMP.
AEs were graded according to the National Cancer Institute (NCI) Common Terminology Criteria for Adverse Events (CTCAE). In accordance with the CTCAE criteria, AEs were rated on a five-point scale corresponding to mild, moderate, severe, life-threatening or disabling and death. For those AEs not described in the CTCAE, a separate five-point rating scale was used for rating of the intensity of AEs as follows below:
Safety parameters were evaluated for all patients included in the ITT analysis set, comprising all 610 randomized patients who received at least one dose of study medication. All safety tables include four columns: the three treatment groups described separately, and the pooled degarelix group.
Adverse events were regarded as ‘treatment-emergent’ if they occurred in the time interval from initial dosing to end-of-study. Adverse events were considered ‘pre-treatment’ if they occurred between screening and the initial injections of IMP. As described above, all AEs were classified according to MedDRA (version 10.0) system organ class (SOC), sorted alphabetically, and by preferred term (PT), in decreasing frequency of occurrence. Treatment-emergent AEs were expressed in terms of intensity (using NCI CTCAE) and relationship to study drug.
Using the results from the summary of clinical efficacy (SCE) and summary of clinical safety (SCS) findings, different patient subgroups were analyzed. Subgroup distinguishers included race (white, black, and other), age (<65 years, […], and >75 years), weight (<70 kg, ≥70−<90 kg, and ≥90 kg), body mass index (BMI) (≤20, >20 to 30, and >30 kg/m^2)), region (North-America, Western Europe, Central and Eastern Europe and Other), and stage of prostate cancer (e.g., localized, locally advanced, and metastatic).

[1] = degarelix 240/80 mg, listed as degarelix

CC(=O)N[C@H](Cc1ccc2ccccc2c1)C(=O)N[C@H](Cc1ccc(Cl)cc1)C(=O)N[C@H](Cc1cccnc1)C(=O)N[C@@H](CO)C(=O)N[C@@H](Cc1ccc(NC(=O)[C@@H]2CC(=O)NC(=O)N2)cc1)C(=O)N[C@H](Cc1ccc(NC(N)=O)cc1)C(=O)N[C@@H](CC(C)C)C(=O)N[C@@H](CCCCNC(C)C)C(=O)N1CCC[C@H]1C(=O)N[C@H](C)C(N)=O [Degarelix, D-Alaninamide, N-acetyl-3-(2-naphthalenyl)-D-alanyl-4-chloro-D-phenylalanyl-3-(3-pyridinyl)-D-alanyl-L-seryl-4-[[[(4S)-hexahydro-2,6-dioxo-4-pyrimidinyl]carbonyl]amino]-L phenylalanyl-4-[(aminocarbonyl)amino]-D-phenylalanyl-L leucyl-N6-(1-methylethyl)-L-lysyl-L-prolyl] (Ac-[d2Nal][dPhe(4-Cl)][d3Pal]S[Phe(4-NH2)](Dihydroorotyl(S))[dPhe(4-NHCONH2)]L[Lys(iPr)]P[dA]-NH2)
ADRs, % of patients (degarelix 240/80 mg): 57%
ADRs, E events (degarelix 240/80 mg): 459
ADRs, N patients (degarelix 240/80 mg): 118
AEs leading to discontinuation, % of patients (degarelix 240/80 mg): 7%
AEs leading to discontinuation, E events (degarelix 240/80 mg): 15
AEs leading to discontinuation, N patients (degarelix 240/80 mg): 15
Alanine aminotransferase increased, % of patients (degarelix 240/80 mg): (10%)
All AEs, E = number of adverse events (degarelix 240/80 mg): 937
All AEs, N = number of patients (degarelix 240/80 mg): 163
Arthralgia, % of patients (degarelix 240/80 mg): ( 5%)
Aspartate aminotransferase increased, % of patients (degarelix 240/80 mg): ( 5%)
Back pain, % of patients (degarelix 240/80 mg): ( 6%)
Blood & lymphatic system disorders, % of patients (degarelix 240/80 mg): ( 2%)
Cardiac disorders, % of patients (degarelix 240/80 mg): ( 8%)
Chills, % of patients (degarelix 240/80 mg): ( 5%)
Constipation, % of patients (degarelix 240/80 mg): ( 5%)
Deaths (Grade 5), % of patients (degarelix 240/80 mg): 2%
Deaths (Grade 5), E events (degarelix 240/80 mg): 5
Deaths (Grade 5), N patients (degarelix 240/80 mg): 5
Ear & labyrinth disorders, % of patients (degarelix 240/80 mg): ( 3%)
Endocrine disorders, % of patients (degarelix 240/80 mg): (<1%)
Eye disorders, % of patients (degarelix 240/80 mg): ( 3%)
Fatigue, % of patients (degarelix 240/80 mg): ( 3%)
Gastrointestinal disorders, % of patients (degarelix 240/80 mg): (18%)
General disorders & administration site conditions, % of patients (degarelix 240/80 mg): (44%)
Hepatobiliary disorders, % of patients (degarelix 240/80 mg): (<1%)
Hot flush, % of patients (degarelix 240/80 mg): (26%)
Hypercholesterolaemia, % of patients (degarelix 240/80 mg): ( 3%)
Hypertension, % of patients (degarelix 240/80 mg): ( 6%)
Immune system disorders, % of patients (degarelix 240/80 mg): (<1%)
Infections & infestations, % of patients (degarelix 240/80 mg): (22%)
Injection site erythema, % of patients (degarelix 240/80 mg): (17%)
Injection site induration, % of patients (degarelix 240/80 mg): ( 4%)
Injection site nodule, % of patients (degarelix 240/80 mg): ( 3%)
Injection site pain, % of patients (degarelix 240/80 mg): (28%)
Injection site swelling, % of patients (degarelix 240/80 mg): ( 6%)
Injury, poisoning & procedural complications, % of patients (degarelix 240/80 mg): ( 5%)
Investigations, % of patients (degarelix 240/80 mg): (26%)
Metabolism & nutrition disorders, % of patients (degarelix 240/80 mg): ( 7%)
Musculoskeletal & connective tissue disorders, % of patients (degarelix 240/80 mg): (15%)
Nausea, % of patients (degarelix 240/80 mg): ( 4%)
Neoplasms benign, malignant & unspecified, % of patients (degarelix 240/80 mg): ( 5%)
Nervous system disorders, % of patients (degarelix 240/80 mg): (12%)
Psychiatric disorders, % of patients (degarelix 240/80 mg): ( 8%)
Renal & urinary disorders, % of patients (degarelix 240/80 mg): (14%)
Reproductive system & breast disorders, % of patients (degarelix 240/80 mg): ( 4%)
Respiratory, thoracic & mediastinal disorders, % of patients (degarelix 240/80 mg): (12%)
Serious AEs, % of patients (degarelix 240/80 mg): 10%
Serious AEs, E events (degarelix 240/80 mg): 26
Serious AEs, N patients (degarelix 240/80 mg): 21
Skin & subcutaneous tissue disorders, % of patients (degarelix 240/80 mg): ( 9%)
Urinary tract infection, % of patients (degarelix 240/80 mg): ( 5%)
Vascular disorders, % of patients (degarelix 240/80 mg): (34%)
Weight increased, % of patients (degarelix 240/80 mg): ( 9%)
Injection site adverse events, % of subjects (degarelix 240/80 mg s.c., leuprolide 7.5 mg i.m.): 35%
ADRs excluding injection site reactions, % of patients (degarelix 240/80 mg, leuprolide 7.5 mg): 43%
Arthralgia, % of patients [1]: 5%
Back pain, % of patients [1]: 6%
Chills, % of patients [1]: 5%
Constipation, % of patients [1]: 5%
Fatigue, % of patients [1]: 3%
Hot flush, % of patients [1]: 26%
Hypertension, % of patients [1]: 6%
Injection site erythema, % of patients [1]: 17%
Injection site induration, % of patients [1]: 4%
Injection site nodule, % of patients [1]: 3%
Injection site pain, % of patients [1]: 28%
Injection site swelling, % of patients [1]: 6%
Musculoskeletal & connective tissue disorders, % of patients [1]: 15%
Treatment-emergent adverse events (all AEs), % of patients [1]: 79%
Urinary tract infection, % of patients [1]: 5%
Weight increased, % of patients [1]: 9%
ADRs excluding injection site reactions, % of patients (degarelix 240/160 mg): 44%
ADRs, % of patients (degarelix 240/160 mg): 59%
ADRs, E events (degarelix 240/160 mg): 463
ADRs, N patients (degarelix 240/160 mg): 120
